Measured values from publication PMC4879371, “Antitrypanosomal Activities and Mechanisms of Action of Novel Tetracyclic Iridoids from Morinda lucida Benth” (Antimicrobial Agents and Chemotherapy, 2016).

Key:
HF-19 (lung fibroblast) = test: MTT cytotoxicity assay, HF-19; type: cell-based, human; conditions: IC50 HF-19 / IC50 trypanosomes
Procedure: (§1) The cytotoxicity of the compounds to mammalian cells were determined using four human normal cell lines, namely, NB1RGB (skin fibroblast) and HF-19 (lung fibroblast) obtained from the RIKEN Bio Resource Center Cell Bank (Japan) and Chang Liver and Hs888Lu (lung) obtained from the European Collection of Authenticated Cell Cultures (ECACC). NB1RGB and HF-19 were maintained in minimum essential medium-α (MEM-α). Chang Liver and Hs888Lu were grown in Eagle's minimum essential medium (EMEM) and RPMI 1640, respectively. All of these media were supplemented with 10% fetal bovine serum (FBS) and 1% penicillin-streptomycin and were then incubated at 37°C under 5% CO2 in fully humidified conditions.
(§2) Cytotoxicity was determined using a 3-(4,5-dimethylthiazol-2-yl)-2,5-diphenyltetrazolium bromide (MTT) assay. The cells were treated with molucidin, ML-2-3, or ML-F52 at concentrations of ≤50 μM for 48 h. Cells were plated at a density of 0.5 × 10^4 cells/well into 96-well plates. After 24 h of incubation, cells were treated with various concentrations of each of the purified compounds for 48 h. Then, MTT solution was added to each well, and the cells were incubated for another 4 h. The precipitated MTT-formazan product was dissolved in 0.04 N HCl-isopropanol, and the amount of formazan was measured at a wavelength of 595 nm by a microplate reader (Immuno Mini NJ-2300; Nihon InterMed, Tokyo, Japan). Cytotoxicity was calculated as the percentage of live cells relative to the control culture. The selectivity index (SI) was expressed as the ratio of the IC50 obtained for mammalian cells and the IC50 for trypanosomes.

[1] = MTT cytotoxicity assay, HF-19; type: cell-based, human; conditions: human, HF-19 lung fibroblast cells; HF-19 normal lung fibroblast, 48 h
Procedure: as §1, §2

[2] = system: Trypanosoma brucei parasites; test: FACS cell cycle assay, time course; type: cell-based
Procedure: Seeding and incubation of parasites with compounds were done under the same conditions as those for the alamarBlue assay as described above without addition of the alarmarBlue reagent. In this case, after 24 h of incubation, Guava reagents for Nexin and cell cycle assays were added, and each assay was performed using the Millipore Guava easyCyte 5HT fluorescence-activated cell sorter (FACS) machine according to the manufacturer's instruction. The Nexin assay and subsequent FACS analysis allowed for detection of markers of apoptosis induction by the plant materials. Similarly, the cell cycle assay and subsequent FACS analysis allowed for detection of markers of cell cycle alteration by the plant materials.
To investigate the sequence in which the events (apoptosis induction, PFR-2 suppression, and cell cycle alteration) involved in mechanisms of action occur, we examined the time course for the three events using ML-2-3-treated parasites. Trypanosoma brucei parasites were incubated for 0, 0.5, 1.5, 3, 6, and 24 h with 15 μM ML-2-3 and were then subjected to both Nexin assay and Western blot analyses using the PFR-2 antibody. We further investigated the time course of cell cycle alteration using ML-2-3-treated parasites at similar concentrations and incubation periods.

[3] = MTT cytotoxicity assay, NB1RGB; type: cell-based, human; conditions: human, NB1RGB skin fibroblast cells; NB1RGB normal skin fibroblast, 48 h
Procedure: as §1, §2

NB1RGB (skin fibroblast) = test: MTT cytotoxicity assay, NB1RGB; type: cell-based, human; conditions: IC50 NB1RGB / IC50 trypanosomes
Procedure: as §1, §2

[4] = system: four human normal cell lines (NB1RGB, HF-19, Chang Liver, Hs888Lu); test: MTT cytotoxicity assay, all cell lines tested; type: cell-based
Procedure: as §1, §2

[5] = system: GUTat 3.1 strain of the bloodstream form of T. brucei brucei; test: alamarBlue in vitro viability test for trypanosome parasites; type: cell-based; conditions: Trypanosoma brucei, 48 h of incubation, read-out: IC50, antitrypanosomal activity
Procedure: The GUTat 3.1 strain of the bloodstream form of T. brucei brucei parasites was used in this study. Parasites were cultured in vitro according to the conditions established previously ([36]). Parasites were used when they reached a confluent concentration of 1 × 10^6 parasites/ml. Estimation of parasitemia was done with the Neubauer counting chamber. Parasites were diluted to a concentration of 3 × 10^5 parasites/ml with HM1-9 medium and were used for the various experiments.
The alamarBlue assay (Life Technologies, USA) was carried out on treated or untreated trypanosome parasites to ascertain their viability. The assay was performed in a 96-well plate following the manufacturer's instructions with modification. Briefly, 1.5 × 10^4 parasites were seeded with varied concentrations of plant material (extracts, fractions, or compounds) ranging from 0.78 μg/ml to […]. Final concentrations of EtOH and dimethyl sulfoxide (DMSO) were kept at <1% and 0.1%, respectively. After incubation of parasites with or without plant extracts or compounds for 24 h at 37°C in 5% CO2, 10% alamarBlue dye was added, and the parasites were incubated another 24 h in darkness. After a total of 48 h, the plate was read for absorbance at 540 nm using the Tecan Sunrise Wako spectrophotometer. The trend curve was drawn to obtain a 50% inhibitory concentration (IC50) of each plant material (extracts, fractions, and compounds).

Hs888Lu (lung) = test: MTT cytotoxicity assay, Hs888Lu; type: cell-based, human; conditions: IC50 Hs888Lu / IC50 trypanosomes
Procedure: as §1, §2

[6] = MTT cytotoxicity assay, Hs888Lu; type: cell-based, human; conditions: human, Hs888Lu lung cells; Hs888Lu normal lung, 48 h
Procedure: as §1, §2

Plasmodium yoelii = test: Preliminary in vivo studies against Plasmodium yoelii; conditions: BALB/c mice, unpublished data

Structure (SMILES) | SI (selectivity index) (HF-19 (lung fibroblast)) | IC50 at 48 h [1] [µM] | time of exposure to significant changes in cell cycle ([2]; 15 μM ML-2-3) [h] | S-phase cells ([2]; 15 μM, 0.5 h to 24 h) | G2/M-phase cells ([2]; 15 μM, within 0.5 h of exposure, decreased from 31%) [%] | IC50 at 48 h [3] [µM] | SI (selectivity index) (NB1RGB (skin fibroblast)) | selectivity index (SI) for all of the cell lines [4] | cytotoxicity among all cell lines ([4]; ≤50 μM, 48 h) | IC50 [5] [µM] | SI (selectivity index) (Hs888Lu (lung)) | IC50 at 48 h [6] [µM] | efficacy against Plasmodium yoelii in vivo (Plasmodium yoelii)
COc1cc(/C=C2/C(=O)O[C@]34C=C[C@@H]5C(C(=O)O)=CO[C@H](O[C@@H]23)[C@@H]54)ccc1O [ML-2-3] | >13.33 | > 50 | ≤ 0.5 | stayed stable | 9 | > 50 | >13.33 | > 10 | did not show any cytotoxicity | 3.75 | >13.33 | > 50 | –
CCOC(=O)C1=CO[C@@H]2O[C@H]3/C(=C\c4ccc(O)c(OC)c4)C(=O)O[C@]34C=C[C@H]1[C@H]24 [ML-F52] | 25.44 | 10.9 | – | – | – | 4.74 | 11.02 | > 10 | – | 0.43 | 20.67 | 8.89 | –
COC(=O)C1=CO[C@@H]2O[C@H]3/C(=C\c4ccc(O)c(OC)c4)C(=O)O[C@]34C=C[C@H]1[C@H]24 [molucidin] | 11.21 | 14.2 | – | – | – | 7.11 | 5.60 | – | – | 1.27 | 7.31 | 9.29 | significant efficacy
